Broadly, the mortality is the share of the test organisms that died. Low values mean more survivors, high ones fewer survivors.

Data on 2 compounds can be found in patent publication EP4775199A1, “DRUG-RELEASING ELECTROACTIVE IMPLANT FOR NERVOUS SYSTEM REPAIR” (priority 2023, dated 2025).

“Also recorded” adds a separate entry of the source.

Series [1] has as its system meningeal fibroblasts. Type of series: cell-based, rat. To be noted: 10 nM SB743921, 48 hours; control almost 90 %. On the procedure: Meningeal fibroblasts were cultured from adult rat dura mater and arachnoid mater in the presence of fetal bovine serum following published procedures (Collazos-Castro JE, Polo JL, Hernández-Labrado […]. Bioelectrochemical Control of Neural Cell Development on Conducting Polymers. Biomaterials 2010;31:9244-9255). […] The behavior of living cells was studied by means of videomicroscopy, capturing images every 30 minutes for 48 hours. In separate cultures, cell proliferation was also studied by means of the incorporation of 5-ethynyl-2'-deoxyuridine (EdU).

Series [2] relates to rats with spinal cord transection. As to the kind of experiment: Systemic (subcutaneous) administration of SB743921 after spinal cord transection. In kind it is in vivo. The note with it: for Reduction of fibrosis: 7 DPI. On the procedure: (§1) A spinal transection model in adult male Wistar rats was used. Experimental protocols followed European Commission regulations and Spanish legislation for the protection of experimental animals (86/609/EEC, 32/2007, and 223/1988) and were approved by the Ethical Committee for Animal Experimentation of the Hospital Nacional de Parapléjicos of Toledo, Spain. In summary, animals were anesthetized by intraperitoneal (IP) injection of pentobarbital (50 mg/kg) and xylazine (10 mg/kg), providing supplemental doses of 30% one and a half hours later as needed. There were also administered atropine (0.04 mg/kg, IP) to decrease bronchial secretions, marbofloxacin as a prophylactic antibiotic, and ophthalmic ointment to prevent corneal abrasion. A dorsal laminectomy of the T9-T10 vertebrae, under which the T10 and T11 spinal segments are located, respectively, was performed. A small diagonal cut was made in the dura mater, followed by complete spinal cord transection. After a second more rostral cut, the tissue in between was extirpated leaving a neural tissue gap of about 2 mm (Figure 1A). Bleeding was controlled by introducing a fragment of Espongostan® into the cavity, which was removed once hemostasis was achieved. Durorrhaphy was then performed with simple stitches using 10-0 thread; and finally, the muscles and skin were sutured in layers.
(§2) The same spinal cord transection model described in Example 1 was used, in other words, a 2 mm neural gap was created and the dura mater was sutured without other treatments at the injured site. The drug was dissolved in water at 0.8 mg/ml and administered subcutaneously (SC).
(§3) Neural damage, Fibrosis development, inflammation, and repair responses (axonal growth, glial migration, blood vessel growth) were evaluated by means of immunohistochemical staining for axons (neurofilament, NF, Sigma-Aldrich N0142; serotonin, ImmunoSolution IG1112; tyrosine hydroxylase, TH, Sigma AB152), neuronal somas and their dendrites (microtubule-associated protein, MAP2, Sigma M1406), astroglia (glial fibrillary acidic protein, GFAP, BD Biosciences 556327); pericytes and fibroblasts (PDGFR, Abcam AB32570; type IV collagen, Meridian, T40251R), macrophages and microglia (ED1; Chemicon MAB 1435; isolectin B4, Fisher I21411), and endothelial cells (RECA1, Bio-Rad, MCA970R).

Assay in series [3]: as above
In kind it is in vivo, rats. To be noted: rat, in vivo, every 12 hours, starting 12 hours post-injury, at 7 DPI. On the procedure:
as §1, §2, §3

The subject of series [4] is rats with spinal cord transection.
Setting [5] is: regimen a: 1 mg/kg subcutaneous, one dose every 24 hours for 2, 4, or 6 days, starting 12 hours post-injury.
[6] abbreviates: regimen b: 1 mg/kg SC, 5 doses, every 12 hours, starting 12 hours post-injury.
[7] abbreviates: regimen c: 1 mg/kg SC, 4 doses, every 12 hours, starting 24 hours post-injury.
[8] abbreviates: regimen e: 1,125 mg/kg SC, 4 doses, every 12 hours, starting 12 hours post-injury.

For `Cc1ccc(C(=O)N(CCCN)[C@@H](c2oc3cc(Cl)ccc3c(=O)c2Cc2ccccc2)C(C)C)cc1` [SB743921], the “cells that incorporated EdU” value in series [1] came to 20%. The neural tissue gap result in series [2] (Figure 3, 7 DPI, GFAP and MAP2 labeling, initial gap 2 mm) was “less than 500 µm”. In addition, the “fibrosis (PDGFR)” value in series [2] (Figure 3, 7 DPI, regimen not stated) is listed as “partial reduction”. For the same compound, the Neural tissue damage entry in series [2] (rat, in vivo, sc, 1 mg/kg) is reported as “Severe spinal atrophy with 6 doses”; in series [2] (setting [6]), “Mild microhemorrhages”; in series [2] (setting [7]) it was “Increases due to inflammation”; in series [2] (setting [8]), “Inconsistent”. Further, the Systemic adverse effects result in series [2] (setting [5]) is “No detected in the period of survival (7 days post-injury, DPI)”; in series [2] (setting [6]), “Diarrhea, peritonitis”; in series [2] (setting [8]), “Diarrhea, peritonitis”. Also, the Reduction of fibrosis result in series [2] (setting [5]) was “Slight reduction from the 4th dose”; in series [2] (setting [6]) it was “partially reduced fibrosis; also recorded: Partial”; in series [2] (setting [7]), “Inconsistent”; in series [2] (regimen d: 1 mg/kg SC, 4 doses, every 12 hours, starting 12 hours post-injury), “Inconsistent”; in series [2] (setting [8]), “Inconsistent”. In addition, the “signs of neurotoxicity in the perilesional tissue” value in series [2] (regimen b) is recorded as “no obvious signs of neurotoxicity”. For the same compound, the “animals that had died 7 DPI” value in series [2] (regimen b, signs of enterocolitis and bacterial translocation or intestinal perforation) is given as “Four of the seven”. Besides, the mortality at 168 h was greater than 90% in series [3] (1.125 mg/kg, regimen e: 1,125 mg/kg SC, 4 doses) and greater than 50% in series [3] (regimen b: 1 mg/kg SC, 5 doses).
As to `Cc1ccc(NC(=O)c2ccc(CN3CCN(C)CC3)cc2)cc1Nc1nccc(-c2cccnc2)n1` [imatinib], the “safety (death, adverse effects)” value in series [4] (imatinib regimen a: 4 doses of 5 mg/kg SC, every 12 hours, starting 12 hours post-injury, with implant and ES) was “completely safe”. In addition, in series [4] (imatinib regimen a: 4 doses of 5 mg/kg SC, every 12 hours, with implant and ES), the “inflammatory cells in the perilesional spinal segments” value is on record as “reduced presence of inflammatory cells”. The “PDGFR+ residual fibrotic tissue in the injury site” value in series [4] (imatinib regimen b: regimen a and additionally 5 mg/kg everyday until the end of electrostimulation, with implant and ES) is given as “practically eliminated”. Further, in series [4] (imatinib regimen b, with implant and ES), the “cases with separation of the stumps of the spinal cord” value is recorded as “two thirds”. The “distance between the astrocyte front of the stumps” value in series [4] (imatinib regimen b, with implant and ES, 14 DPI, remaining one-third of the animals) is on record as “about 400 µm”. The “axonal extension and branching” value in series [4] (implant with ES combined with subcutaneous imatinib versus implant with ES alone) was “significantly increasing axonal extension and branching”.
